28 compounds from ChEMBL document CHEMBL1833934, “Discovery and optimization of 1-(4-(pyridin-2-yl)benzyl)imidazolidine-2,4-dione derivatives as a novel class of selective cannabinoid CB2 receptor agonists” (J Med Chem, 2011) can be followed below.

System in one data set: not listed separately
Nature of the data set: Dissociation constant, pKa of the compound. In kind it is physicochemical.
Conditions: not given
The term pKa denotes the negative logarithm of the acid dissociation constant. A lower pKa goes with a stronger acid or weaker base. For the compound `CC(C)CN1C(=O)CN(Cc2ccc(-c3cccc(CN4CCCCC4)n3)cc2)C1=O`, the pKa came to 8.9.
Turning to `CCCN1C(=O)CN(Cc2ccc(-c3cccc(CN4CCCCC4)n3)cc2)C1=O`, the pKa turned out to be 8.8.
Turning to `CCN1C(=O)CN(Cc2ccc(-c3cccc(CN4CCCCC4)n3)cc2)C1=O`, the pKa was 8.8.
With `CN1C(=O)CN(Cc2ccc(-c3cccc(CN4CCCCC4)n3)cc2)C1=O`, the pKa was determined as 8.7.
Still for that read-out and setting: under `O=C1CN(Cc2ccc(-c3cccc(CN4CCCCC4)n3)cc2)C(=O)N1C1CC1` stands 9; under `O=C1CN(Cc2ccc(-c3cccc(CN4CCCCC4)n3)cc2)C(=O)N1CC1CC1`, 8.9.
Still for that read-out and setting: as for `O=C1CN(Cc2ccc(-c3cccc(CN4CCCCC4)n3)cc2)C(=O)N1CC(F)F`, the figure is 8.9; as for `CCN1C(=O)CN(Cc2ccc(-c3ccc(F)c(CN4CCCCC4)n3)cc2)C1=O`, 8.5; as for `CCCN1C(=O)CN(Cc2ccc(-c3ccc(F)c(CN4CCCCC4)n3)cc2)C1=O`, 8.5.
Same read-out and setting: under `CC(C)CN1C(=O)CN(Cc2ccc(-c3ccc(F)c(CN4CCCCC4)n3)cc2)C1=O` stands 8.6; under `O=C1CN(Cc2ccc(-c3ccc(F)c(CN4CCCCC4)n3)cc2)C(=O)N1C1CC1`, 8.6; under `O=C1CN(Cc2ccc(-c3ccc(F)c(CN4CCCCC4)n3)cc2)C(=O)N1CC1CC1`, 8.5.
Turning to `O=C1CN(Cc2ccc(-c3ccc(F)c(CN4CCCCC4)n3)cc2)C(=O)N1CC1CCC1`, the pKa was determined as 8.6.
In turn, `O=C1CN(Cc2ccc(-c3ccc(F)c(CN4CCCCC4)n3)cc2)C(=O)N1CC(F)F` had a pKa of 9.
As for `CC(C)CN1C(=O)CN(Cc2ccc(-c3cccc(CN4CCCC(C)C4)n3)cc2)C1=O` (centres undefined), the pKa is 8.7.
`CC(C)CN1C(=O)CN(Cc2ccc(-c3ccc(F)c(CN4CCCC(C)C4)n3)cc2)C1=O` (centres undefined) yielded a pKa of 8.4.
Still for that read-out and setting: under `CC(C)CN1C(=O)CN(Cc2ccc(-c3cccc(CN4CCCC(F)C4)n3)cc2)C1=O` (centres undefined) stands 7.4; under `CC(C)CN1C(=O)CN(Cc2ccc(-c3ccc(F)c(CN4CCCC(F)C4)n3)cc2)C1=O` (centres undefined), 7.2; under `CC(C)CN1C(=O)CN(Cc2ccc(-c3ccc(F)c(CN4CCOCC4)n3)cc2)C1=O`, 6.
For the compound `CC(C)CN1C(=O)CN(Cc2ccc(-c3cccc(CN4CCCC(F)(F)C4)n3)cc2)C1=O`, the pKa worked out at 5.3.
Take `CC(C)CN1C(=O)CN(Cc2ccc(-c3ccc(F)c(CN4CCCC(F)(F)C4)n3)cc2)C1=O`: the pKa is 5.
Same read-out and setting: as for `CC(C)CN1C(=O)CN(Cc2ccc(-c3cccc(CN4CCS(=O)(=O)CC4)n3)cc2)C1=O`, the figure is 3.7.
Still for that read-out and setting: under `CC(C)CN1C(=O)CN(Cc2ccc(-c3ccc(F)c(CN4CCS(=O)(=O)CC4)n3)cc2)C1=O` stands 3; under `O=C1CN(Cc2ccc(-c3ccc(F)c(CN4CCS(=O)(=O)CC4)n3)cc2)C(=O)N1C1CC1`, 2.8.

System in another data set: not listed separately
Kind of data set: in vivo. The note with it: Wistar BRL, rat, brain, po, 20 mg/kg.
`O=C1CN(Cc2ccc(-c3ccc(F)c(CN4CCS(=O)(=O)CC4)n3)cc2)C(=O)N1C1CC1` gave a Kp at 4 h of 0.05.

System in the next data set: not listed separately
Kind of data set: Cmax in Wistar BRL rat plasma at 5 mg/kg, po. On the set-up: dose 5 mg/kg, route oral.
Conditions: not given
The data set is classed as ADME, organism-based.
Usually Cmax stands for the peak of the concentration-time curve. `CC(C)CN1C(=O)CN(Cc2ccc(-c3cccc(CN4CCCCC4)n3)cc2)C1=O` returned a Cmax of 20 nM.
Same read-out and setting: under `O=C1CN(Cc2ccc(-c3ccc(F)c(CN4CCS(=O)(=O)CC4)n3)cc2)C(=O)N1C1CC1` stands 3800 nM.

System in the next data set: not listed separately
Nature of the data set: in vivo. The note with it: Wistar BRL, rat, cerebrospinal fluid, po, 20 mg/kg.
`O=C1CN(Cc2ccc(-c3ccc(F)c(CN4CCS(=O)(=O)CC4)n3)cc2)C(=O)N1C1CC1` returned a Kp at 4 h of 0.14.

System in a further data set: not listed separately
Nature of the data set: Lipophilicity, log D of the compound. The note with it: octanol/water. The data set is classed as physicochemical.
One may read the logD as lipophilicity at a set pH, counting ionised and neutral species. High values mean a more lipophilic compound, low ones a more hydrophilic compound. In turn, `CC(C)CN1C(=O)CN(Cc2ccc(-c3cccc(CN4CCCCC4)n3)cc2)C1=O` gave a logD of 2.8.
`CCCN1C(=O)CN(Cc2ccc(-c3cccc(CN4CCCCC4)n3)cc2)C1=O` displayed a logD of 2.2.
Still for that read-out and setting: under `CCN1C(=O)CN(Cc2ccc(-c3cccc(CN4CCCCC4)n3)cc2)C1=O` stands 1.7; under `CN1C(=O)CN(Cc2ccc(-c3cccc(CN4CCCCC4)n3)cc2)C1=O`, 1.3.
On the same count and under the same terms, under `CC(C)N1C(=O)CN(Cc2ccc(-c3cccc(CN4CCCCC4)n3)cc2)C1=O` stands 2.2; under `O=C1CN(Cc2ccc(-c3cccc(CN4CCCCC4)n3)cc2)C(=O)N1C1CC1`, 1.6; under `O=C1CN(Cc2ccc(-c3cccc(CN4CCCCC4)n3)cc2)C(=O)N1C1CCC1`, 2.7.
`O=C1CN(Cc2ccc(-c3cccc(CN4CCCCC4)n3)cc2)C(=O)N1CC1CC1`: the logD came to 2.5.
As to `O=C1CN(Cc2ccc(-c3cccc(CN4CCCCC4)n3)cc2)C(=O)N1CC(F)F`, the logD stood at 1.6.
Still for that read-out and setting: under `O=C1CN(Cc2ccc(-c3cccc(CN4CCCCC4)n3)cc2)C(=O)N1CC(F)(F)F` stands 1.9; under `CCN1C(=O)CN(Cc2ccc(-c3ccc(F)c(CN4CCCCC4)n3)cc2)C1=O`, 2.1.
On the same count and under the same terms, as for `CCCN1C(=O)CN(Cc2ccc(-c3ccc(F)c(CN4CCCCC4)n3)cc2)C1=O`, the figure is 2.5; as for `CC(C)CN1C(=O)CN(Cc2ccc(-c3ccc(F)c(CN4CCCCC4)n3)cc2)C1=O`, 3.4.
The same measure, in the same setting: under `O=C1CN(Cc2ccc(-c3ccc(F)c(CN4CCCCC4)n3)cc2)C(=O)N1C1CC1` stands 2; under `O=C1CN(Cc2ccc(-c3ccc(F)c(CN4CCCCC4)n3)cc2)C(=O)N1CC1CC1`, 2.8; under `O=C1CN(Cc2ccc(-c3ccc(F)c(CN4CCCCC4)n3)cc2)C(=O)N1CC1CCC1`, 3.5.
Consider `O=C1CN(Cc2ccc(-c3ccc(F)c(CN4CCCCC4)n3)cc2)C(=O)N1CC(F)F`, for which the logD came out at 1.9.
On the same count and under the same terms, as for `CC(C)CN1C(=O)CN(Cc2ccc(-c3cccc(CN4CCCC(C)C4)n3)cc2)C1=O` (centres undefined), the figure is 3.4; as for `CC(C)CN1C(=O)CN(Cc2ccc(-c3ccc(F)c(CN4CCCC(C)C4)n3)cc2)C1=O` (centres undefined), 3.9; as for `CC(C)CN1C(=O)CN(Cc2ccc(-c3cccc(CN4CCCC(F)C4)n3)cc2)C1=O` (centres undefined), 3.7.
The compound `CC(C)CN1C(=O)CN(Cc2ccc(-c3ccc(F)c(CN4CCCC(F)C4)n3)cc2)C1=O` (centres undefined) came in with a log distribution coefficient (logD) of 4.1.
In the case of `CC(C)CN1C(=O)CN(Cc2ccc(-c3ccc(F)c(CN4CCOCC4)n3)cc2)C1=O`, the logD was 3.4.
`CC(C)CN1C(=O)CN(Cc2ccc(-c3cccc(CN4CCCC(F)(F)C4)n3)cc2)C1=O`: the logD was found to be 4.5.
Compound `CC(C)CN1C(=O)CN(Cc2ccc(-c3ccc(F)c(CN4CCCC(F)(F)C4)n3)cc2)C1=O` registered a pH-dependent lipophilicity (logD) of 4.7.
On the same count and under the same terms, under `CC(C)CN1C(=O)CN(Cc2ccc(-c3cccc(CN4CCS(=O)(=O)CC4)n3)cc2)C1=O` stands 3.
Regarding `CC(C)CN1C(=O)CN(Cc2ccc(-c3ccc(F)c(CN4CCS(=O)(=O)CC4)n3)cc2)C1=O`, the logD was 3.
Still for that read-out and setting: as for `CCN1C(=O)CN(Cc2ccc(-c3cccc(CC4CCCCC4)n3)cc2)C1=O`, the figure is 5.6.
Same read-out and setting: under `O=C1CN(Cc2ccc(-c3ccc(F)c(CN4CCS(=O)(=O)CC4)n3)cc2)C(=O)N1C1CC1` stands 1.

System in another data set: not listed separately
Kind of data set: Oral bioavailability in Wistar BRL rat at 5 mg/kg. In kind it is ADME, organism-based. Conditions: in vivo.
For orientation: bioavailability means dose-corrected exposure relative to a reference, in per cent. `CC(C)CN1C(=O)CN(Cc2ccc(-c3cccc(CN4CCCCC4)n3)cc2)C1=O`: the bioavailability was found to be 4%.
`O=C1CN(Cc2ccc(-c3ccc(F)c(CN4CCS(=O)(=O)CC4)n3)cc2)C(=O)N1C1CC1` had a bioavailability of 100%.

System in a further data set: not listed separately
Nature of the data set: Volume of distribution at steady state in Wistar BRL rat plasma at 1 mg/kg, iv and 5 mg/kg, po. In kind it is ADME, organism-based. The note with it: read-out: Vdss.
`CC(C)CN1C(=O)CN(Cc2ccc(-c3cccc(CN4CCCCC4)n3)cc2)C1=O`: the Vd came out at 5.4 L/kg.
`O=C1CN(Cc2ccc(-c3ccc(F)c(CN4CCS(=O)(=O)CC4)n3)cc2)C(=O)N1C1CC1`: the Vd stood at 0.94 L/kg.

In a further data set the test system is Rattus norvegicus. Nature of the data set: Unbound Cmax in Wistar BRL rat plasma at 5 mg/kg, po. In kind it is ADME, organism-based. On the set-up: dose 5 mg/kg, route oral. Conditions: in vivo.
`CC(C)CN1C(=O)CN(Cc2ccc(-c3cccc(CN4CCCCC4)n3)cc2)C1=O` registered a fCmax of 0.006 µM.
In the case of `O=C1CN(Cc2ccc(-c3ccc(F)c(CN4CCS(=O)(=O)CC4)n3)cc2)C(=O)N1C1CC1`, the fCmax was 1.7 µM.

System in another data set: not listed separately
Kind of data set: Apparent permeability across human Caco2 cell membrane at 20 uM after 1 hr by LC-MS/MS analysis. Conditions: Caco-2.
Broadly, the Papp is the rate of passage across a membrane or cell layer, normalised by area and donor concentration. With `CC(C)CN1C(=O)CN(Cc2ccc(-c3cccc(CN4CCCCC4)n3)cc2)C1=O`, the Papp at 1 h, 20 µM came to 21 ×10⁻⁶ cm/s.
`O=C1CN(Cc2ccc(-c3ccc(F)c(CN4CCS(=O)(=O)CC4)n3)cc2)C(=O)N1C1CC1`: the Papp at 1 h, 20 µM stood at 17.3 ×10⁻⁶ cm/s.
